Patent US20050131209A1, “Crystallized hnf4 gamma ligand binding domain polypeptide and screening methods employing same” (priority 2001, published 2005)
“Also recorded” adds a separate entry of the source.

Experiments:
HNF4γ LBD = target: T1, HNF4γ LBD (Homo sapiens, UniProt Q14541); assay: GC/MS identification of fatty acids bound to purified HNF4γ LBD (extract); format: binding; conditions: lipid extract of purified HNF4γ LBD, methyl esters, CI and EI
T1 construct: HNF4γ amino acids 102-408; made in house; host or cells: E. coli BL21 (DE3), vector pRSETa
T1 sequence (Q14541 102-408): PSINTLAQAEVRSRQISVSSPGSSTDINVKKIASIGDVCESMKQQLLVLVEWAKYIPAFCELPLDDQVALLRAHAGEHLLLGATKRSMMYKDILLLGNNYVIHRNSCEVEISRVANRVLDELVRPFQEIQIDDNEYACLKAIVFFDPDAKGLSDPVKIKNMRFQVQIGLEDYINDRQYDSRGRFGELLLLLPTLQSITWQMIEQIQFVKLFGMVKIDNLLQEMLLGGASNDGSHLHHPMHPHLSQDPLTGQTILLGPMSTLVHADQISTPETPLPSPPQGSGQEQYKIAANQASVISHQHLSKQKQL
Method: The description of the bound ligand from the structural data led to the belief that the compound was a fatty acid. Analytical methods were used to obtain a definitive identification of the ligand. First, bound ligand(s) was separated from a purified preparation of HNF4γ LBD by liquid-liquid extraction (Folch et al., (1957) J. Biol. Chem. 226: 497-509). The extract was then treated with 3% (v/v) acetyl chloride in methanol. This reagent converts fatty acids to their corresponding fatty acid methyl esters (FAME). The derivatized sample was then analyzed by gas chromatography/mass spectrometry (GC/MS) using both electron impact ionization (EI) and chemical ionization (CI) in separate analyses. The constituents of the extract were identified by comparing the GC/MS data for the extract with data for standard fatty acids, acquired likewise.
The CI mass spectra for peaks a through g all show a protonated molecular ion ([M+H]^+) along with a fragment ion at a mass-to-charge (m/z) value 32 Da below the protonated molecular ion. […]
The second column lists the protonated molecular ion detected of each labeled peak in FIG. 4. […]
Lipids were extracted from an aliquot of HNF4γ LBD with chloroform/methanol 2:1 (v/v). […] The derivatized sample was then analyzed by GC/MS on a Shimadzu GC-17A QP-5050A instrument. […]

[1] = target: T2, HNF4α LBD / CBP (CREB-binding protein) (Homo sapiens, UniProt P41235); assay: FRET assay of CBP recruitment to HNF4α LBD; format: biochemical; conditions: cell-free FRET; for Kd: dose dependent, read-out: apparent binding constant (increase of CBP-HNF4 interaction); for effect on CBP recruitment / association between HNF4 and CBP: ligands incubated 15 minutes at 21° C.
T2 construct: HNF4α amino acids 141465 and HNF4γ amino acids 102-408; biotin (chemical biotinylation); made in house; host or cells: E. coli
T2 sequence (P41235 150-474 limits assumed): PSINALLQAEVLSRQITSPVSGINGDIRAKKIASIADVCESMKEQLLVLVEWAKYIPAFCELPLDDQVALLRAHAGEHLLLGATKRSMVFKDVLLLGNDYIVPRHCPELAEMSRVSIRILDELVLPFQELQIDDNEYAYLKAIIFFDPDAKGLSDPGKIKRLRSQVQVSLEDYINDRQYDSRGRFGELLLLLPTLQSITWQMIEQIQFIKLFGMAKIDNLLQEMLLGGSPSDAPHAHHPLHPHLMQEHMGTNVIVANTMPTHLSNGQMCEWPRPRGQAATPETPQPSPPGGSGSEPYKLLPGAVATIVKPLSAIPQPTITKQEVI
Method: (§1) To confirm that fatty acids were functional HNF4 ligands, HNF4α and HNF4γ were tested for their ability to recruit the nuclear receptor co-activator CREB binding protein, a known activation partner (Wang et al., (1998) J. Biol. Chem. 273: 30847-50; Dell & Hadzopoulou-Cladaras, (1999) J. Biol. Chem. 274: 9013-21). A FRET (fluorescent resonance energy transfer) assay was employed using purified recombinant CREB-binding protein (CBP) and HNF4 LBD (Zhou et al., (1998) Mol. Endocrinol. 12: 1594-1604). Long-chain fatty acids (LCFA) with increasing carbon lengths from 12 to 18 carbon methylene units were tested for their ability to modulate the association between HNF4 and CBP in a dose dependent manner. […] Palmitic and stearic acids increased the allosteric interaction between CBP and HNF4, with apparent binding constants of 1 μM.
(§2) The reported ligands for HNF4α are fatty acyl-CoA thioesters (Hertz et al., (1998) Nature (London) 392: 512-16), which are much larger than other nuclear receptor ligands (Bogan et al., (1998) Nat. Struct. Biol. 5: 679-81). […] Shorter fatty acyl-CoAs had no effect on CBP association.
(§3) A cell-free fluorescent resonance energy transfer (FRET) assay was used to measure the association between the amino portion of CBP (CREB-binding protein) (residues 54-457) and the HNF4 LBD (HNF4α amino acids 141465 and HNF4γ amino acids 102-408) (Zhou et al., (1998) Mol. Endocrinol 12: 1594-1604). Proteins were expressed in E. coli, purified to homogeneity, and biotinylated. CBP, the fluorescence donor, was labeled with a europium chelate, and HNF4 LBD was labeled with the streptavidin-conjugated fluorophore allophycocyanin (Molecular Probes, Eugene, Oreg.). Labeled HNF4 LBD and CBP were incubated together with ligands for 15 minutes at 21° C. before assaying. A small basal level was observed, as depicted in FIG. 3.

HNF4α = target: T3, HNF4α (Homo sapiens, UniProt P41235); assay: GC/MS analyses of receptor extracts, HNF4α; format: binding
T3 sequence (P41235 1-474): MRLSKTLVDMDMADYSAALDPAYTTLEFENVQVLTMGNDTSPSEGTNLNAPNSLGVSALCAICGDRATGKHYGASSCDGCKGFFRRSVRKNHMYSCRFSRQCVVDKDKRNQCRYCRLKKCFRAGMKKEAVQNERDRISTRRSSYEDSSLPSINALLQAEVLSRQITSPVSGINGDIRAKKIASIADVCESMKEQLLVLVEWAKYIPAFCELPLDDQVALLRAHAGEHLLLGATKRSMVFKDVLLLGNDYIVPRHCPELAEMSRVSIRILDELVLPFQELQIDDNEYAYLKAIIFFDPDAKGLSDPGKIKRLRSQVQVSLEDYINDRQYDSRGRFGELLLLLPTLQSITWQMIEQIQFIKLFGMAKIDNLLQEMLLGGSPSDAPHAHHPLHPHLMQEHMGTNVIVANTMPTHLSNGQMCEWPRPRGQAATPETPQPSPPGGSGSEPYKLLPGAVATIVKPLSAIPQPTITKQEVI
Text: Palmitic acid forms hydrogen bonds with the side chain of arginine 186, and with the backbone nitrogen of glycine 197 (not shown). Alanine 215 corresponds to serine 256 in HNF4α. Because serine can form hydrogen bonds to the ligand, the specificity is different for the two receptor subtypes. […] Valine 214 corresponds to valine 255 in HNF4α, and is one of the mutations associated with MODY, Type 1.

[2] = target: T4, HNF4γ LBD / CBP (CREB-binding protein) (Homo sapiens, UniProt Q14541); assay: FRET assay of CBP recruitment to HNF4γ LBD; format: biochemical; conditions: cell-free FRET; for Kd: dose dependent, read-out: apparent binding constant (increase of CBP-HNF4 interaction); for effect on CBP recruitment / association between HNF4 and CBP: ligands incubated 15 minutes at 21° C.
T4 construct: HNF4γ amino acids 102-408; biotin (chemical biotinylation); made in house; host or cells: E. coli
T4 sequence (Q14541 102-408): T1 sequence (Q14541 102-408)
Method: as §1, §2, §3

SMILES | fatty acid found in HNF4γ extract by GC/MS (HNF4γ LBD) | Kd [1] [µM] | effect on CBP recruitment / association between HNF4 and CBP [1] | binding to HNF4α by GC/MS of receptor extracts (HNF4α) | Kd [2] [µM] | effect on CBP recruitment / association between HNF4 and CBP [2]
CCCCCCCCCCCCCCCC(=O)O [palmitic acid] | most abundant component | 1 | functional activators; also recorded: increased | binds | 1 | functional activators; also recorded: increased
CCCCCCCCCCCCCCCC(=O)SCCNC(=O)CCNC(=O)[C@H](O)C(C)(C)COP(=O)(O)OP(=O)(O)OC[C@H]1O[C@@H](n2cnc3c(N)ncnc32)[C@H](O)[C@@H]1OP(=O)(O)O [palmitoyl-CoA] |  |  | decreased the basal level |  |  | decreased the basal level
CCCCCCCCCCCCCCCCCC(=O)O [stearic acid] |  | 1 | functional activators; also recorded: increased | binds | 1 | functional activators; also recorded: increased
CCCCCCCCCCCCCCCCCC(=O)SCCNC(=O)CCNC(=O)[C@H](O)C(C)(C)COP(=O)(O)OP(=O)(O)OC[C@H]1O[C@@H](n2cnc3c(N)ncnc32)[C@H](O)[C@@H]1OP(=O)(O)O [steroyl-CoA] |  |  | decreased the basal level |  |  | decreased the basal level
